Laboratory results as given in patent publication US20230203081A1, “LINCOSAMIDE ANTIBIOTICS AND USES THEREOF” (President and Fellows of Harvard College, priority 2020, published 2023).
≈ marks a conversion by molar mass, not a printed value. Like-named read-outs stand apart in the source and are kept apart here.

How the values were obtained:
Assay type in all cases: cell-based
[1] = system: S. aureus MP-549 msrA; assay: microbe, parasite or virus in culture
Procedure, shortened: (§1)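 Per CLSI, MICs by broth microdilution or agar dilution; strains other than streptococci and anaerobes were sub-cultured overnight at 35° C on blood agar, with a final broth inoculum of 5×10^5 CFU/mL.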

[2] = system: E. coli MP-74 LptD mutant; assay: MIC (broth microdilution or agar dilution, CLSI)
Procedure, shortened: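 MICs follow CLSI broth microdilution or agar dilution, testing typically 128-0.06 μg/mL compound at 2.5% final DMSO, in triplicate with clindamycin comparator. Non-anaerobic strains use CaMHB at a final inoculum of 5×10^5 CFU/mL; anaerobes like C. difficile and C. scindens use specialized procedures.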

[3] = system: E. coli ATCC 25922; assay: MIC (broth microdilution or agar dilution, CLSI)
Procedure, shortened: as §1

[4] = system: E. coli MP-9 ΔTolC; assay: MIC (broth microdilution or agar dilution, CLSI)
Procedure, shortened: as §1

[5] = system: E. faecalis ATCC 29212; assay: MIC (broth microdilution or agar dilution, CLSI)
Procedure, shortened: as §1

[6] = system: H. influenzae ATCC 49247; assay: MIC (broth microdilution or agar dilution, CLSI)
Procedure, shortened: as §1

[7] = system: K. pneumoniae ATCC 10031; assay: MIC (broth microdilution or agar dilution, CLSI)
Procedure, shortened: as §1

[8] = system: S. aureus ATCC 29213; assay: MIC (broth microdilution or agar dilution, CLSI)
Procedure, shortened: as §1

[9] = system: S. pyogenes ATCC 19615; assay: MIC (broth microdilution or agar dilution, CLSI)
Procedure, shortened: as §1

[10] = system: S. pneumoniae ATCC 49619; assay: MIC (broth microdilution or agar dilution, CLSI); conditions: Streptococcus pneumoniae, read-out: MIC
Procedure, shortened: as §1

[11] = system: E. coli armA; assay: microbe, parasite or virus in culture; conditions: Escherichia coli, E. coli HAV#056; Clinical, armA
Procedure, shortened: as §1

[12] = system: E. coli ΔTolC; assay: microbe, parasite or virus in culture; conditions: Escherichia coli, E. coli HAV#038; ΔTolC
Procedure, shortened: as §1

[13] = system: S. aureus BAA 977 iErmA; assay: microbe, parasite or virus in culture; conditions: Staphylococcus aureus
Procedure, shortened: as §1

[14] = system: broad panel of different clinical isolates; assay: microbe, parasite or virus in culture
Procedure, shortened: as §1

[15] = system: A. baumannii ATCC 19606; assay: MIC (broth microdilution or agar dilution, CLSI); conditions: Acinetobacter baumannii, ATCC19606; A. baumanii HAV#010, ATCC 19606; read-out: MIC
Procedure, shortened: as §1

[16] = system: E. coli LptD; assay: MIC (broth microdilution or agar dilution, CLSI); conditions: Escherichia coli, E. coli HAV#040; LptD; read-out: MIC
Procedure, shortened: as §1

[17] = system: E. faecalis MMX 847; cErmB; assay: MIC (broth microdilution or agar dilution, CLSI); conditions: Enterococcus faecalis, cErmB, read-out: MIC
Procedure, shortened: as §1

[18] = system: K. oxytoca Clinical; assay: MIC (broth microdilution or agar dilution, CLSI); conditions: Klebsiella oxytoca; K. oxytoca HAV#450; Clinical; read-out: MIC
Procedure, shortened: as §1

[19] = system: S. aureus ATCC BAA-1707 (MRSA); assay: MIC (broth microdilution or agar dilution, CLSI); conditions: Staphylococcus aureus; S. aureus HAV#016, ATCC BAA-1707; MRSA; read-out: MIC
Procedure, shortened: as §1

[20] = system: S. aureus MMX 3035 cErmA; assay: MIC (broth microdilution or agar dilution, CLSI); conditions: Staphylococcus aureus, MMX3035CERMA, read-out: MIC
Procedure, shortened: as §1

[21] = system: S. aureus hVISA; assay: MIC (broth microdilution or agar dilution, CLSI); conditions: Staphylococcus aureus; S. aureus HAV#204, hVISA; read-out: MIC
Procedure, shortened: as §1

[22] = system: S. pneumoniae ATCC 6303; assay: MIC (broth microdilution or agar dilution, CLSI); conditions: Streptococcus pneumoniae, ATCC6303; S. pneumoniae HAV#351, ATCC 6303; read-out: MIC
Procedure, shortened: as §1

[23] = system: S. pneumoniae MMX 3028 cErmB; assay: MIC (broth microdilution or agar dilution, CLSI); conditions: Streptococcus pneumoniae, MMX3028CERMB, read-out: MIC
Procedure, shortened: as §1

[24] = system: S. pneumoniae MMX 3031 cMefA; assay: MIC (broth microdilution or agar dilution, CLSI); conditions: Streptococcus pneumoniae, MMX3031CMEFA, read-out: MIC
Procedure, shortened: as §1

[25] = system: S. pyogenes MMX 946; cErmB; assay: MIC (broth microdilution or agar dilution, CLSI); conditions: Streptococcus pyogenes, cErmB, read-out: MIC
Procedure, shortened: as §1

[26] = Escherichia coli, ATCC25922, E. coli ATCC 25922, read-out: MIC
[27] = Enterococcus faecalis, ATCC29212, E. faecalis ATCC 29212, read-out: MIC
[28] = Haemophilus influenzae, ATCC49247, H. influenzae ATCC 49247, read-out: MIC
[29] = Staphylococcus aureus, ATCC29213, S. aureus ATCC 29213, read-out: MIC
[30] = ATCC49619, S. pneumoniae ATCC 49619
[31] = Streptococcus pyogenes, ATCC19615, S. pyogenes ATCC 19615, read-out: MIC

CSC1O[C@H]([C@H](NC(=O)[C@H]2NC[C@@H]3C[C@H](C(C)C)CCO[C@H]32)[C@H](C)Cl)C(O)[C@@H](O)[C@H]1O (some centres unmarked) [FSA-512078b]
MIC ([1]; S. aureus MP-549 msrA): 0.25 µg/mL (≈ 0.52 µM)
MIC ([2]; E. coli MP-74 LptD mutant): 16 µg/mL (≈ 33.3 µM)
MIC ([3]; E. coli ATCC 25922): 128 µg/mL (≈ 266 µM)
MIC ([4]; E. coli MP-9 ΔTolC): 4 µg/mL (≈ 8.32 µM)
MIC ([5]; E. faecalis ATCC 29212): 0.5 µg/mL (≈ 1.04 µM)
MIC ([6]; H. influenzae ATCC 49247): 32 µg/mL (≈ 66.5 µM)
MIC ([7]; K. pneumoniae ATCC 10031): 4 µg/mL (≈ 8.32 µM)
MIC ([8]; S. aureus ATCC 29213): 0.5 µg/mL (≈ 1.04 µM)
MIC ([9]; S. pyogenes ATCC 19615): ≤0.12 µg/mL

CSC1O[C@H]([C@H](NC(=O)[C@@H]2[C@@H]3OCC[C@@H](C4CCCCC4)C[C@H]3CN2C)[C@H](C)Cl)CC(O)[C@H]1O (some centres unmarked) [FSA-513002b]
MIC ([2]; Escherichia coli): 16 µg/mL (≈ 30.8 µM)
MIC [3, 26]: 128 µg/mL (≈ 247 µM)
MIC ([4]; Escherichia coli): 8 µg/mL (≈ 15.4 µM)
MIC [5, 27]: 0.5 µg/mL (≈ 0.963 µM)
MIC [6, 28]: 8 µg/mL (≈ 15.4 µM)
MIC [8, 29]: 0.5 µg/mL (≈ 0.963 µM)
MIC [10, 30]: 0.25 µg/mL (≈ 0.482 µM)
MIC [9, 31]: 0.25 µg/mL (≈ 0.482 µM)

CSC1O[C@H]([C@H](NC(=O)[C@@H]2[C@@H]3OCC[C@H](CC(C)(C)C)C[C@H]3CN2C)[C@H](C)Cl)CC(O)[C@H]1O (some centres unmarked) [FSA-513004a]
MIC ([2]; Escherichia coli): 128 µg/mL (≈ 252 µM)
MIC ([3]; Escherichia coli, ATCC25922, E. coli ATCC 25922): > 128 µg/mL
MIC ([4]; Escherichia coli): > 128 µg/mL
MIC [5, 27]: 1 µg/mL (≈ 1.97 µM)
MIC ([6]; Haemophilus influenzae, ATCC49247): 128 µg/mL (≈ 252 µM)
MIC [8, 29]: 1 µg/mL (≈ 1.97 µM)
MIC [10, 30]: 0.5 µg/mL (≈ 0.986 µM)
MIC [9, 31]: 0.25 µg/mL (≈ 0.493 µM)

CC[C@H]1OC(=O)[C@H](C)[C@@H](O[C@H]2C[C@@](C)(OC)[C@@H](O)[C@H](C)O2)[C@H](C)[C@@H](O[C@@H]2O[C@H](C)C[C@H](N(C)C)[C@H]2O)[C@](C)(O)C[C@@H](C)C(=O)[C@H](C)[C@@H](O)[C@]1(C)O [Erythromycin]
MIC [11]: 32 µg/mL (≈ 43.6 µM)
MIC [12]: 4 µg/mL (≈ 5.45 µM)
MIC ([13]; BAA-977 / MRSA): > 64 µg/mL
MIC ([1]; Staphylococcus aureus, MP549MSRA, S. aureus HAV#032, MP-549, MSR(A)): 64 µg/mL (≈ 87.2 µM)
MIC ([14]; Enterococcus faecalis, VRE, E. faecalis HAV#251, Clinical VRE): > 64 µg/mL
MIC ([14]; Escherichia coli, E. coli HAV#501, Clinical): > 64 µg/mL
MIC ([14]; Klebsiella pneumoniae, K. pneumoniae HAV#041, Clinical, KPC): > 64 µg/mL
MIC ([14]; Staphylococcus aureus, MRSA, S. aureus HAV#017, MRSA Col(Colindale, England)): 0.5 µg/mL (≈ 0.681 µM)
MIC ([14]; Staphylococcus aureus, S. aureus HAV#216, Clinical, cfr): 32 µg/mL (≈ 43.6 µM)
MIC ([14]; Staphylococcus aureus, S. aureus HAV#217, cfr): 64 µg/mL (≈ 87.2 µM)
MIC ([14]; Staphylococcus aureus, VISA, S. aureus HAV#203, Clinical (VISA)): > 64 µg/mL
MIC ([14]; Staphylococcus epidermidis, S. epidermidis HAV# 275 Clinical, cfr): 8 µg/mL (≈ 10.9 µM)
MIC ([14]; Staphylococcus epidermidis, S. epidermidis HAV# 276, cfr): > 128 µg/mL
MIC [15]: 64 µg/mL (≈ 87.2 µM)
MIC ([3]; Escherichia coli, ATCC25922, E. coli HAV#006, ATCC 25922, read-out: MIC): 64 µg/mL (≈ 87.2 µM)
MIC [16]: 1 µg/mL (≈ 1.36 µM)
MIC ([5]; Enterococcus faecalis, ATCC29212, E. faecalis HAV#005, ATCC 29212, read-out: MIC): 2 µg/mL (≈ 2.73 µM)
MIC ([17]; E. faecalis HAV#036, MMX 847, mac-resistant): > 64 µg/mL
MIC ([6]; Haemophilus influenzae, ATCC49247, H. influenzae HAV#007, ATCC 49247, read-out: MIC): 8 µg/mL (≈ 10.9 µM)
MIC [18]: > 64 µg/mL
MIC ([7]; Klebsiella pneumoniae, ATCC10031, K. pneumoniae HAV#008, ATCC 10031, read-out: MIC): 8 µg/mL (≈ 10.9 µM)
MIC ([8]; Staphylococcus aureus, ATCC29213, S. aureus HAV#001, ATCC 29213, MP-549, read-out: MIC): 0.5 µg/mL (≈ 0.681 µM)
MIC [19]: 0.5 µg/mL (≈ 0.681 µM)
MIC ([20]; S. aureus HAV#031, MMX 3035, cErmA): > 64 µg/mL
MIC [21]: > 64 µg/mL
MIC ([10]; ATCC49619, S. pneumoniae HAV#003, ATCC 49619): ≤ 0.06 µg/mL
MIC [22]: 0.5 µg/mL (≈ 0.681 µM)
MIC ([23]; S. pneumoniae HAV#033, MMX 3028, cErmB): > 64 µg/mL
MIC ([24]; S. pneumoniae HAV#034, MMX 3031, cMefA): 8 µg/mL (≈ 10.9 µM)
MIC ([9]; Streptococcus pyogenes, ATCC19615, S. pyogenes HAV#004, ATCC 19615, read-out: MIC): < 0.06 µg/mL
MIC ([25]; S. pyogenes HAV#035, MMX 946, mac-resistant): > 64 µg/mL

CSC1O[C@H]([C@H](NC(=O)[C@@H]2[C@@H]3OCC[C@H](CC(C)C)C[C@H]3CN2C)[C@H](C)Cl)CC(O)[C@H]1O (some centres unmarked) [FSA-513003a]
MIC ([13]; BAA977): 0.12 µg/mL (≈ 0.243 µM)
MIC ([1]; Staphylococcus aureus, MP549MSRA, S. aureus MP-549 msrA): 0.12 µg/mL (≈ 0.243 µM)
MIC ([2]; Escherichia coli): 2 µg/mL (≈ 4.06 µM)
MIC [3, 26]: 32 µg/mL (≈ 64.9 µM)
MIC ([4]; Escherichia coli): 1 µg/mL (≈ 2.03 µM)
MIC [5, 27]: 0.12 µg/mL (≈ 0.243 µM)
MIC ([17]; E. faecalis MMX 847): 8 µg/mL (≈ 16.2 µM)
MIC [6, 28]: 2 µg/mL (≈ 4.06 µM)
MIC [8, 29]: 0.12 µg/mL (≈ 0.243 µM)
MIC ([20]; S. aureus MMX 3035 cErmA): 16 µg/mL (≈ 32.4 µM)
MIC [10, 30]: 0.06 µg/mL (≈ 0.122 µM)
MIC ([23]; S. pneumoniae MMX 3028 cErmB): 8 µg/mL (≈ 16.2 µM)
MIC ([24]; S. pneumoniae MMX 3031 cMefA): ≤ 0.06 µg/mL
MIC [9, 31]: 0.06 µg/mL (≈ 0.122 µM)
MIC ([25]; S. pyogenes MMX 946): 8 µg/mL (≈ 16.2 µM)
